Test results as given in patent US10357533B2, “Drug for the effective control of acute and or chronic pain and a method for its administration” (PVP LABS PTE. LTD., priority 2016, dated 2019).
Where two headings read alike, the source gives them in different places. [ ]: non-standard residue; d: D form. Sar = CNCC(=O)O

Tests used:
rats = test: Hot plate test in rats; assay type: in vivo; conditions: for HPL, s (Mean ± SEM): hot plate 52° C.
Protocol: The “Hot Plate” test is based on the reflex that rat licking its' feet when the animal comes in contact with a hot surface. The device is a metal surface with a diameter of 30 cm whose temperature is controlled by software. The site is enclosed by a transparent fence with a height of 40 cm. The temperature of the metal pad was set at exactly 52° C. When placing the animal on the surface, you measure the time until the moment when the animal licks its' foot. When analgesics are administered, the time before the rat licks its' feet increases. The licking latency (HPL) of 40 seconds was used as the maximum allowable time of stimulation. The study was conducted on male rats weighing 160-180 g, 6 animals per dose.

mice [1] = test: Acetic acid-induced writhing test in mice; assay type: in vivo; conditions: for Number of writhings, n (Mean ± SEM): 15 minutes count
Protocol: The acetic acid-induced writhing test is a model of a chemical nociceptive stimulus applied by the intraperitoneal injection of acetic acid solution.
Intraperitoneal injection of substances that irritate serous membranes in mice induces distinctive movements, including contractions of abdominal muscles followed by muscle relaxation, extension of the hind limbs and curving of the back, known as writhing. Mice were given an intraperitoneal injection of 1% acetic acid at a dose of 0.1 mL per 10 g body weight. After the injection the mice were placed in transparent acrylic chambers and counted the number of writhings in each animal for the next 15 minutes. The analgesic effect was evaluated by a reduction in the number of writhings in mice that received the study drug relative to the control group. […] Writhing onset latency in mice was used as an additional parameter for evaluating the efficacy of the substance in the acetic acid-induced writhing test.

mice [2] = conditions: published data, cited from earlier work
mice [3] = test: Open field test and toxicity of high doses in mice; assay type: in vivo; conditions: open field, 20 EC50 doses (120 mg/kg)
Protocol: Testing of the influence of the injectable substance based on tetrapeptide (as in example 2) H-Tyr-D-Arg-Phe-Gly-NH2 on the behavior of animals, was provided in the study of the toxicity of high doses of the “open field” test and maintaining balance on a horizontal rod.
The aim of the experiment was to identify an effective dose of the substance that affects the behavior of the animals. It was tested on several animals after administration of different doses of peptide compound.
The experimental and control groups of male mice were taken from the same batch, about the same weight (22-24 g).
The substance was injected intraperitoneally in identical weight amounts to laboratory animals in the experimental and control groups, respectively. […] The measurement was started 15 minutes after injection.
Several groups were organized: without the introduction of the substance, and with the introduction of a solution of morphine or peptide. After 15 from injection we conducted measurement in the following order:
Each animal tested was introduced into a round, not brightly lit arena. The surface is divided into square blocks of 10 cm each. We count locomotor activity of the mouse when it crossed the square. The movement of the mouse in the center of the arena and on the periphery, are recorded separately. We registered the number of times the mouse stands on its hind legs “stand” and the number of times the mouse looks into a “burrow”—ie. holes in the floor. Observations were done visually and were simultaneously entered into a computer using a keyboard (semi-automatic registration).

[4] = target: opioid μ-receptors located on GPI (Cavia porcellus, UniProt A0ACM8Q262); test: Inhibition of electrically stimulated contractions of isolated guinea pig ileum (GPI); assay type: cell-based; parameters: amplitude: unit not given here
Protocol: Effect was assessed by ability to inhibit the contraction caused by electrical stimulation of isolated organs—guinea pig ileum (GPI). Work was carried out on a special apparatus for testing substances for opioid activity on the model of guinea pig ileum. GPI, taken from nonlinear animals were placed in a 10 ml volumetric flask with electrodes inserted containing Krebs solution at 34° C. in a water bath (HOECHST Organbad, Germany) with a thermostat for maintaining a constant temperature in the working cell. The lower end of the GPI is fixed to the vessel at the bottom. The upper end of the ligature was attached to the sensor strength registration device (sensors isometric registration K-30, “Hugo Sachs Elektronik KG”, Germany). The initial tension of the organs was 1 gram. The solution with placed in GPI was being constantly aerated. GPI segments were equilibrated in the Krebs solution for one hour.
GPI contractions were stimulated by plate electrodes with electrical impulses in a series of four rectangular pulses each lasting 0.5 ms and with 1.5 ms intervals, with delays at 7.5 sec. between the series and voltage 80V using a generator of electric impulses (type 215/I, Hugo Sachs Elektronik, Germany). Registration was performed in isometric contraction mode using K30 sensors via two channel amplifiers MS 6601 (“Watanabe”, Japan).
At the beginning stimulation was applied for a minimum of 45 minutes, which allowed reproducible responses to be established.
The tested substance was administered in a solution bathing the organs in a volume of 0.005 to 0.015 ml, to final concentrations of 1×10^−9-1×10^−6 M. Each subsequent introduction of the substance was done 1 minute after the previous dose without washing the organs, on a cumulative basis. […] Active substances were expressed on an indicator pD2 (numerically equal to the negative decimal logarithm of the concentration of a substance that causes 50% of the maximum effect). In other words, the potency of the opioid receptor agonists in the absence and presence of the antagonist was assessed as the negative logarithm of the concentration required to cause 50% of the maximum response (pD2) using the logistic equation described by DeLean A. et al.
During the experiment, the change in GPI amplitude contractions was taken into account and was fixed. Parallel monitoring in 4 chambers with GPI segments for each substance was used.

mice [5] = conditions: subcutaneously to mice, acute pain, ringer solution; application JPS6054400; cited from earlier work

Chain of opioid μ-receptors located on GPI (A0ACM8Q262 1-400): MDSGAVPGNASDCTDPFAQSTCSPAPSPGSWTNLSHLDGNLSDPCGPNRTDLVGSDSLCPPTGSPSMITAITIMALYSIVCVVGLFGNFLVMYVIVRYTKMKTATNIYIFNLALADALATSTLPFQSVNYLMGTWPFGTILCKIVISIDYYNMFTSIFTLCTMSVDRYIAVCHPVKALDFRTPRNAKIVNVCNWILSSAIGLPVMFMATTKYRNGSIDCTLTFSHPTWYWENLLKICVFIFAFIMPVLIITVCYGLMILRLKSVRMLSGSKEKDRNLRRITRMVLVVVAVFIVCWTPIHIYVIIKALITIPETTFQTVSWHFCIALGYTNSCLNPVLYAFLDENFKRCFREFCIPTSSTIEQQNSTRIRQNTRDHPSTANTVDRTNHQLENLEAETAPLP

Molecule	amplitude ([4]; concentration 1.0E−09 M)	inhibit. effect ([4]; concentration 1.0E−09 M)	amplitude ([4]; concentration 1.4E−06 M)	inhibit. effect ([4]; concentration 1.4E−06 M)	amplitude ([4]; concentration 1.4E−07 M)	inhibit. effect ([4]; concentration 1.4E−07 M)	amplitude ([4]; concentration 1.4E−08 M)	inhibit. effect ([4]; concentration 1.4E−08 M)	amplitude ([4]; concentration 4.0E−09 M)	inhibit. effect ([4]; concentration 4.0E−09 M)	amplitude ([4]; concentration 4.4E−07 M)	inhibit. effect ([4]; concentration 4.4E−07 M)	amplitude ([4]; concentration 4.4E−08 M)	inhibit. effect ([4]; concentration 4.4E−08 M)	also measured
CN1CC[C@]23c4c5ccc(O)c4O[C@H]2[C@@H](O)C=C[C@H]3[C@H]1C5 [Morphine, reference compound]															Proportion of the maximum possible effect (MPE), % (rats; 5 mg/kg subcutaneous): 68.6%; HPL, s (Mean ± SEM) (rats; 5 mg/kg subcutaneous): 27.45 ± 4.4 s; Proportion of the maximum possible effect (MPE), % (rats; 15 mg/kg subcutaneous): 95.7%; HPL, s (Mean ± SEM) (rats; 15 mg/kg subcutaneous): 38.31 ± 2.63 s; % of mice w/o writhing (mice [1]; 1 mg/kg subcutaneous): 14.3%; Number of mice w/o writhing/number of mice in group (mice [1]; 1 mg/kg subcutaneous): 1/7; Writhing onset latency, s (Mean ± SEM) (mice [1]; 1 mg/kg subcutaneous): 467.1 ± 74.41 s; Number of writhings, n (Mean ± SEM) (mice [1]; 1 mg/kg subcutaneous 40 minutes before acetic acid): 12.4 ± 3.73 n; % of mice w/o writhing (mice [1]; 3 mg/kg subcutaneous): 37.5%; Number of mice w/o writhing/number of mice in group (mice [1]; 3 mg/kg subcutaneous): 3/8; Writhing onset latency, s (Mean ± SEM) (mice [1]; 3 mg/kg subcutaneous): 695.0 ± 85.00 s; Number of writhings, n (Mean ± SEM) (mice [1]; 3 mg/kg subcutaneous 40 minutes before acetic acid): 2.1 ± 0.83 n; antinociceptive activity, % of MPE (mice [2]; dosage 7 mg/kg): 50%; antinociceptive activity, % of MPE (mice [2]; dosage 10 mg/kg): 75%; antinociceptive activity, % of MPE (mice [2]; dosage 20 mg/kg): 95%; physical activity reduced (mice [3]): 50-70%
H-Y[dR]F[Sar]-OH [TP2]	38.2	0.0%	8.6	77.5%	22.0	42.4%	35.3	7.6%	38.2	0.0%	15.2	60.2%	29.7	22.2%	
H-Y[dR]FG-NH2 [TP1]	38.7	0.0%	9.3	76.6%	23.0	41.1%	36.0	7.0%	38.7	0.0%	15.7	61.1%	30.3	22.9%	analgesic action, times the activity of morphine (mice [5]): more than 6 times
